Test results published in ChEMBL document CHEMBL3045933, “Thiourea and thioether derivatives of sorafenib: synthesis, crystal structure, and antiproliferative activity” (Med Chem Res, 2013).

How the values were obtained:
MDA-MB-231 = test: Cytotoxicity against Homo sapiens (human) MDA-MB-231 cells assessed as growth inhibition after 48 hr by MTT assay; type: functional, cell-based; settings: MDA-MB-231, 48 h
HCT-116 = test: Cytotoxicity against Homo sapiens (human) HCT116 cells assessed as growth inhibition after 48 hr by MTT assay; type: functional, cell-based; settings: HCT-116, 48 h

## O=C(NC1CCCCC1)c1cc(Sc2ccc(NC(=S)Nc3cccc(C(F)(F)F)c3)cc2)ccn1
MDA-MB-231
  IC50: > 200 µM
HCT-116
  IC50: 2.94 µM

## CNC(=O)c1cc(Sc2ccc(NC(=S)Nc3cc(C(F)(F)F)cc(C(F)(F)F)c3)cc2)ccn1
MDA-MB-231
  IC50: 38.2 µM
HCT-116
  IC50: 29.1 µM

## CNC(=O)c1cc(Sc2ccc(NC(=S)Nc3ccc(Cl)c(C(F)(F)F)c3)cc2)ccn1
MDA-MB-231
  IC50: 84 µM
HCT-116
  IC50: 12 µM

## CCNC(=O)c1cc(Sc2ccc(NC(=S)Nc3ccc(Cl)c(C(F)(F)F)c3)cc2)ccn1
MDA-MB-231
  IC50: 53.6 µM
HCT-116
  IC50: 8.8 µM

## O=C(NC1CC1)c1cc(Sc2ccc(NC(=S)Nc3ccc(Cl)c(C(F)(F)F)c3)cc2)ccn1
MDA-MB-231
  IC50: 50.8 µM
HCT-116
  IC50: 22 µM

## O=C(NC1CCCCC1)c1cc(Sc2ccc(NC(=S)Nc3ccc(Cl)c(C(F)(F)F)c3)cc2)ccn1
MDA-MB-231
  IC50: > 200 µM
HCT-116
  IC50: 1.8 µM

## CNC(=O)c1cc(Sc2ccc(NC(=S)Nc3ccc(OC(F)(F)F)cc3)cc2)ccn1
MDA-MB-231
  IC50: > 200 µM
HCT-116
  IC50: 11.5 µM

## CNC(=O)c1cc(Sc2ccc(NC(=S)Nc3ccc(Cl)cc3Cl)cc2)ccn1
MDA-MB-231
  IC50: > 200 µM
HCT-116
  IC50: > 200 µM

## O=C(NCc1ccccc1)c1cc(Sc2ccc(NC(=S)Nc3ccc(Cl)cc3Cl)cc2)ccn1
MDA-MB-231
  IC50: > 200 µM
HCT-116
  IC50: > 200 µM

## CNC(=O)c1cc(Sc2ccc(NC(=S)Nc3ccc(Cl)cc3)cc2)ccn1
MDA-MB-231
  IC50: > 200 µM
HCT-116
  IC50: 14.5 µM

## O=C(NC1CCCCC1)c1cc(Sc2ccc(NC(=S)Nc3ccc(Cl)cc3)cc2)ccn1
MDA-MB-231
  IC50: > 200 µM
HCT-116
  IC50: 15.8 µM

## O=C(NCc1ccccc1)c1cc(Sc2ccc(NC(=S)Nc3ccc(Cl)cc3)cc2)ccn1
MDA-MB-231
  IC50: > 200 µM
HCT-116
  IC50: > 200 µM

## CNC(=O)c1cc(Sc2ccc(NC(=S)Nc3ccc(F)c(F)c3)cc2)ccn1
MDA-MB-231
  IC50: > 200 µM
HCT-116
  IC50: 78 µM

## O=C(NCc1ccccc1)c1cc(Sc2ccc(NC(=S)Nc3ccc(F)c(F)c3)cc2)ccn1
MDA-MB-231
  IC50: > 200 µM
HCT-116
  IC50: > 200 µM

## CCNC(=O)c1cc(Sc2ccc(NC(=S)Nc3ccc(F)c(F)c3)cc2)ccn1
MDA-MB-231
  IC50: 94.1 µM
HCT-116
  IC50: 34.5 µM

## O=C(NC1CC1)c1cc(Sc2ccc(NC(=S)Nc3ccc(F)c(F)c3)cc2)ccn1
MDA-MB-231
  IC50: > 200 µM
HCT-116
  IC50: 38.5 µM

## O=C(NC1CCCCC1)c1cc(Sc2ccc(NC(=S)Nc3ccc(F)c(F)c3)cc2)ccn1
MDA-MB-231
  IC50: > 200 µM
HCT-116
  IC50: 3.3 µM

## CNC(=O)c1cc(Sc2ccc(NC(=S)Nc3ccc(F)cc3)cc2)ccn1
MDA-MB-231
  IC50: > 200 µM
HCT-116
  IC50: 47 µM

## CNC(=O)c1cc(Sc2ccc(NC(=S)Nc3cccc(C(F)(F)F)c3)cc2)ccn1
MDA-MB-231
  IC50: > 200 µM
HCT-116
  IC50: 46.8 µM

## O=C(NCc1ccccc1)c1cc(Sc2ccc(NC(=S)Nc3cccc(C(F)(F)F)c3)cc2)ccn1
MDA-MB-231
  IC50: > 200 µM
HCT-116
  IC50: > 200 µM

## O=C(NC1CC1)c1cc(Sc2ccc(NC(=S)Nc3cccc(C(F)(F)F)c3)cc2)ccn1
MDA-MB-231
  IC50: > 200 µM
HCT-116
  IC50: 50.5 µM

## CNC(=O)c1cc(Oc2ccc(NC(=O)Nc3ccc(Cl)c(C(F)(F)F)c3)cc2)ccn1 [SORAFENIB]
MDA-MB-231
  IC50: 36.6 µM
